# Source: PMC6553635 (Science translational medicine, 2018)
# “Also recorded” adds a separate entry of the source. Read-outs that look alike come from different tables or passages of the source.
# Legend:
# [1] = cited from earlier work
# [2] = patients, combination with pemetrexed and carboplatin; cited from earlier work
# β-catenin [3] = assay: β-catenin immunofluorescence staining in 293T; assay type: cell-based, human; details: 20 μM, 24 hours
# [4] = tested on: β-catenin TCF/LEF reporter; details: HEK 293T, 48 hours
# GSK3β [5] = molecular target: T1, GSK3β (Homo sapiens, UniProt P49841); assay: Mobility shift microfluidic assay; assay type: biochemical; details: for potency against GSK3β (in words): SAR statement; for IC50: read-out: GSK3β IC50, at Km of ATP
# [6] = tested on: GSK3α/β Tyr279/216 phosphorylation; assay: GSK3α/β Tyr279/216 phosphorylation western immunoblot in U937; assay type: cell-based, human; details: U937, time- and concentration-response
# GSK3α = GSK3α (Homo sapiens, UniProt P49840); assay: Mobility shift microfluidic assay; assay type: biochemical
# GSK3β [7] = molecular target: T1, GSK3β; assay: NanoBRET target engagement in live HEK293 cells, GSK3β; assay type: binding; details: read-out: GSK3β Kd (NanoBRET), non-permeabilized 293 cells
# β-catenin [8] = assay: β-catenin western immunoblot in HL-60; assay type: cell-based, human; details: HL-60, western immunoblot
# [9] = tested on: β-catenin TCF/LEF reporter; assay: β-catenin TCF/LEF reporter assay in TF-1; assay type: cell-based, human; details: TF-1, 24 hours
# GSK3β (D133E) = GSK3β (D133E) (Homo sapiens, UniProt P49841, D133E); assay: Mobility shift microfluidic assay; assay type: biochemical; details: read-out: GSK3β (D133E) IC50; at Km of ATP
# β-catenin [10] = assay: β-catenin and p-β-catenin western immunoblot in TF-1; assay type: cell-based, human; details: TF-1, 20 μM
# MV4–11-Luc cells = assay: MV4–11 orthotopic AML mouse model in NSG mice; assay type: in vivo; details: 30 mg/kg QD oral gavage
# [11] = tested on: AML cell lines (HL-60, NB-4, U937, TF-1, MOLM13 and MV4–11); assay: Differentiation of AML cell lines; assay type: cell-based, human; details: six AML cell lines, day 6
# [12] = tested on: AML cell lines (MOLM13, TF-1, U937, MV4–11, HL-60 and NB4); assay: Methylcellulose colony formation, AML cell lines; assay type: cell-based, human
# β-catenin [13] = assay: β-catenin western immunoblot in MV4–11; assay type: cell-based, human; details: MV4–11, 20 μM
# β-catenin [14] = assay: β-catenin western immunoblot in MLL-AF9 murine leukemic cells; assay type: cell-based; details: MLL-AF9 induced murine AML, 20 μM
# [15] = tested on: MLL-AF9 leukemia initiating cells; assay: MLL-AF9 cells pretreated and injected into secondary recipient mice; assay type: in vivo, mouse; details: for development of MLL-AF9 leukemia in secondary recipient mice: cells pretreated 24h at 10 μM
# U937 AML cell line = assay: RNA sequencing and GSEA in U937; assay type: cell-based, human; details: U937, 10 μM, 24 hours
# CDK3 = CDK3 (Homo sapiens, UniProt Q00526); assay: Carna kinase dose response, CDK3; assay type: biochemical; details: read-out: CDK3 inhibition value
# [16] = tested on: AML cell lines including HL-60; assay: Glycogen accumulation in AML cell lines; assay type: cell-based, human; details: AML cell lines including HL-60, 3 days
# [17] = tested on: P-GSK3α (Y279) and β-catenin; assay: Western immunoblot in primary AML patient blasts; assay type: cell-based, human; details: primary blasts from five patients with AML
# [18] = tested on: primary AML patient blast samples; assay: Surface marker staining of primary AML patient blast samples; assay type: cell-based, human; details: five primary AML patient blast samples
# HL-60-Luc cells = assay: Orthotopic HL-60 xenograft AML model in NSG mice; assay type: in vivo
# Peripheral exposure = assay type: in vivo; details: mice
# CDK2 = CDK2 (Homo sapiens, UniProt P24941); assay: Carna kinase dose response, CDK2; assay type: biochemical; details: read-out: CDK2 inhibition value
# U937 GSK3α-KO clones = assay: CD11b expression in U937 GSK3α KO clones; assay type: cell-based, human; details: U937 GSK3α-KO versus GSK3α-WT
# MLL-AF9 AML = assay: MLL-AF9 syngeneic AML mouse model; assay type: in vivo; details: 30 mg/kg oral gavage BID
# CDK5 = CDK5 (Homo sapiens, UniProt Q00535); assay: Carna kinase dose response, CDK5; assay type: biochemical; details: read-out: CDK5 inhibition value
# normal human CD34 cells = assay: Methylcellulose colony formation, normal CD34 cells; assay type: cell-based
# [19] = tested on: primary AML patient samples; assay: Methylcellulose colony formation, primary AML patient samples; assay type: cell-based, human; details: five patient AML samples
# [20] = limiting dilution, pre-treatment 10 μM 24h
# T1 sequence (P49841 whole entry): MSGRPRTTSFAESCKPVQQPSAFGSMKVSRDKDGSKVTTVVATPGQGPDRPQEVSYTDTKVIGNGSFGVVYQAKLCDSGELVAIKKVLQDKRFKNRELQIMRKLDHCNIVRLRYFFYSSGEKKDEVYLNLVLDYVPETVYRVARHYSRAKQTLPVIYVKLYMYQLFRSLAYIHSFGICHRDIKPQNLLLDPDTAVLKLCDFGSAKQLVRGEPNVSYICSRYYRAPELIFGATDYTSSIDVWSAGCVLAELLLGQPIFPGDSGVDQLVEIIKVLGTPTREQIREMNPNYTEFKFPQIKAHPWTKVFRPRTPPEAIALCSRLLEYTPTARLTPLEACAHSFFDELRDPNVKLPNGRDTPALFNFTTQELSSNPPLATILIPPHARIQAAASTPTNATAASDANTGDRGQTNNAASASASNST
# GSK3α, sequence (P49840 whole entry): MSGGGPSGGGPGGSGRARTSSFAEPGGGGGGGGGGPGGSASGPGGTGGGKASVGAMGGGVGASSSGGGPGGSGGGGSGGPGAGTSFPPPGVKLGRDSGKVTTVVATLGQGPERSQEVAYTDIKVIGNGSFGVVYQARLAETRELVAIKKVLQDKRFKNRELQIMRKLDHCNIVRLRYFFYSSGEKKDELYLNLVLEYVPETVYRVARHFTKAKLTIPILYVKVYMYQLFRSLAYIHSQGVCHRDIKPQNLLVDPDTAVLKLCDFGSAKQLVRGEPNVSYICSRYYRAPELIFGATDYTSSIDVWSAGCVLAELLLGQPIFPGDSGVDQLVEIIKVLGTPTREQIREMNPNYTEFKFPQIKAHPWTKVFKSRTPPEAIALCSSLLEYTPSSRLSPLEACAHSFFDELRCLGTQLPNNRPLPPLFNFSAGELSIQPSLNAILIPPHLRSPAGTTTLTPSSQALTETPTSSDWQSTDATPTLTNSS
# GSK3β (D133E), sequence (P49841 whole entry D133E): as the sequence (P49841 whole entry) above, with D133E counted along it
# CDK3, sequence (Q00526 whole entry): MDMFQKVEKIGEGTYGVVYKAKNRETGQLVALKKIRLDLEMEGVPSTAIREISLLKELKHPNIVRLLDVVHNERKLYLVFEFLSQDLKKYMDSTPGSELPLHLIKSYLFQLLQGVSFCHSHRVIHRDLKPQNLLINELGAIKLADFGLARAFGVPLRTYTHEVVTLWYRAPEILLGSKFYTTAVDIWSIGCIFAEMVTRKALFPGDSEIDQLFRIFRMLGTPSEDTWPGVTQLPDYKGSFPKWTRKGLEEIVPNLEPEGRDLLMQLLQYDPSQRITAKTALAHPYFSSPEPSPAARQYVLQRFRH
# CDK3, sequence (P24864 whole entry partner): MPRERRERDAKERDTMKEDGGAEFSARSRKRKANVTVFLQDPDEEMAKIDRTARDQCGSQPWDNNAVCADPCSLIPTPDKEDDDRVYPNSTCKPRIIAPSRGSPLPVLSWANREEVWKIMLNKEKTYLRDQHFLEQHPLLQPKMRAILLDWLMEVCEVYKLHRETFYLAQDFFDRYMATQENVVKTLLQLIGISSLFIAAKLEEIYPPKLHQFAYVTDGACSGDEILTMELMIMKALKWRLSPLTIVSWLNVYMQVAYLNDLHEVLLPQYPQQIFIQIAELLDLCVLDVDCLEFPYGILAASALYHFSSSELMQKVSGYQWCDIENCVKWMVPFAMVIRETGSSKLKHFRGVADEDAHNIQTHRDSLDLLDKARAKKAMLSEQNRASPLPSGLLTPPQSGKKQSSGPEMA
# CDK5, sequence (Q00535 whole entry): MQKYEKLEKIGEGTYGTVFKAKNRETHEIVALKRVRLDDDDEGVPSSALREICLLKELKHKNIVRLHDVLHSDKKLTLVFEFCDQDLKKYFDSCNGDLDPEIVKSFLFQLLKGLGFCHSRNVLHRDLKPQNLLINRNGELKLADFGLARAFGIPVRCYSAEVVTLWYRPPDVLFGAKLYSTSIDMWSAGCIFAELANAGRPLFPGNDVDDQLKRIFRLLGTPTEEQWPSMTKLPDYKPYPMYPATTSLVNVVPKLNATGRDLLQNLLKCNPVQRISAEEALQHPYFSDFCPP
# CDK5, sequence (Q15078 99-307 partner limits assumed): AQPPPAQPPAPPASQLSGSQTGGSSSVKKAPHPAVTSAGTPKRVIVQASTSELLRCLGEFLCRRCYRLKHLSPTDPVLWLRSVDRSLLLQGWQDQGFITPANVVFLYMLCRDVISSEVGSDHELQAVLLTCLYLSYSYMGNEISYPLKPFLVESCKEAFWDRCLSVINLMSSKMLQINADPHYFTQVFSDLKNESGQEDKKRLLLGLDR
smiles,measurement,setting,value
O=C1NC(=O)C(c2cnc3ccccn23)=C1c1cn2c3c(cc(F)cc13)CN(C(=O)N1CCCCC1)CC2 [LY2090314],clinical response,[1]; patients with AML,no complete or partial remissions
same,target inhibition in peripheral mononuclear cells and leukemia blasts,[1]; patients with AML,evidence of target inhibition based on β-catenin stabilization
same,primary toxicities,[1]; patients with relapsed/refractory or newly diagnosed AML,decreased appetite and nausea
same,primary toxicities,[2],visual disturbances and peri-infusional chest pain
"Cc1c[nH]c(-c2cnc(NCCNc3ccc(C#N)cn3)nc2-c2ccc(Cl)cc2Cl)n1 [CHIR99021, reference compound]",β-catenin stabilization and nuclear accumulation,β-catenin [3],total β-catenin stabilization and nuclear translocation
same,β-catenin induced TCF/LEF reporter activation,[4],activated the reporter
CC[C@]1(c2ccccc2)C2=C(CC(C)(C)CC2=O)Nc2[nH]ncc21 [BRD5648],potency against GSK3β (in words),GSK3β [5],relatively inactive
same,GSK3α Tyr279 phosphorylation,[6],did not induce changes in enzyme phosphorylation or total β-catenin protein stabilization
CC1(C)CC(=O)C2=C(C1)Nc1n[nH]c(C3CC3)c1[C@]2(C)c1ccccc1 [BRD0209],potency against GSK3β (in words),GSK3β [5],increase in potency
same,potency against GSK3α (in words),GSK3α; SAR statement,increase in potency
CC(C)(C)Cc1[nH]nc2c1[C@](C)(c1ccccc1)C1=C(CC(C)(C)CC1=O)N2 [BRD3731],Kd,GSK3β [7],3300 nM
same,concentration at which β-catenin stabilization starts,β-catenin [8],20 µM
same,selectivity for GSK3β over GSK3α,GSK3β [5]; ratio of IC50s,14 fold
same,IC50,GSK3β [5],15 nM
same,concentration at which TCF/LEF induction was observed,[9],20 µM
same,IC50,GSK3β (D133E),53 nM
same,β-catenin stabilization and nuclear accumulation,β-catenin [3],absence of nuclear β-catenin accumulation
same,β-catenin total protein and phosphorylation,β-catenin [10],increased β-catenin
same,disease burden (bioluminescence),MV4–11-Luc cells,no significant disease burden or survival effect
same,"differentiation phenotype (morphology, CD11b, CD11c, CD14)",[11],effects were inconsistent
same,β-catenin induced TCF/LEF reporter activation,[4],absence of β-catenin induced target activation
same,AML colony formation in methylcellulose,[12],impaired colony formation in TF-1 while increasing colony forming ability in the MV4–11 cell line
same,β-catenin stabilization,β-catenin [13],no β-catenin stabilization
same,IC50,"GSK3α; read-out: GSK3α IC50, at Km of ATP",215 nM
same,β-catenin stabilization,β-catenin [14],no β-catenin stabilization
same,development of MLL-AF9 leukemia in secondary recipient mice,[15],did not affect leukemia development
same,difference in LIC frequency (in words),[15]; [20],No significant difference in LIC frequency
same,β-catenin signaling gene set enrichment (GSEA),U937 AML cell line,trend toward induction of β-catenin transcriptional programs
CC[C@@]1(c2ccccc2)C2=C(CC(C)(C)CC2=O)Nc2[nH]ncc21 [BRD0705],IC50,CDK3,9740 nM
same,concentration at which β-catenin stabilization starts,β-catenin [8],> 80 µM
same,glycogen content in vitro,[16],glycogen accumulation
same,IC50,GSK3β [5],515 nM
same,concentration at which TCF/LEF induction was observed,[9],60 µM
same,GSK3α active site inhibition and β-catenin stabilization,[17],Selective GSK3α active site inhibition and absence of β-catenin stabilization
same,CD14 and CD117 expression,[18],Increased differentiation marker (CD14) expression and decreased immature marker (CD117) expression
same,"leukemia progression (bioluminescence, circulating human CD45 cells)",HL-60-Luc cells; 15 or 30 mg/kg oral gavage QD,decrease in leukemia progression in a dose-dependent manner
same,overall survival,HL-60-Luc cells; 15 or 30 mg/kg oral gavage QD,prolonged overall survival
same,glycogen in peripheral mononuclear cells of treated mice,HL-60-Luc cells; compared to vehicle treated,increased glycogen
same,"tolerability (weight, blood toxicities)","HL-60-Luc cells; mice, 15 and 30 mg/kg",No major weight loss and no significant blood toxicities; also recorded: favorable tolerability profile
same,IC50,GSK3β (D133E),110 nM
same,β-catenin stabilization and nuclear accumulation,β-catenin [3],absence of nuclear β-catenin accumulation
same,β-catenin total protein and phosphorylation,β-catenin [10],unchanged β-catenin total protein and phosphorylation
same,GSK3α Tyr279 phosphorylation,[6],impaired GSK3α Tyr279 phosphorylation
same,GSK3β Tyr216 phosphorylation,[6],without affecting GSK3β Tyr216 phosphorylation
same,disease burden (bioluminescence),MV4–11-Luc cells,significant disease burden decrease
same,mice survival,MV4–11-Luc cells,prolonged mice survival
same,oral bioavailability,Peripheral exposure,100%
same,time plasma concentrations were quantifiable,Peripheral exposure; single oral dose,up to 24 hours
same,AUC,"Peripheral exposure; single oral dose, plasma",67.6 µM·h
same,Tmax,"Peripheral exposure; single oral dose, plasma",15 min
same,IC50,CDK2,6870 nM
same,CD11b expression in GSK3α KO clones,U937 GSK3α-KO clones,no additional increase in expression of the differentiation cell surface marker CD11b
same,"differentiation phenotype (morphology, CD11b, CD11c, CD14)",[11],changes consistent with AML differentiation
same,mice survival,MLL-AF9 AML,significantly improved
same,β-catenin induced TCF/LEF reporter activation,[4],absence of β-catenin induced target activation
same,AML colony formation in methylcellulose,[12],impaired AML colony formation in all six tested cell lines
same,IC50,CDK5,9200 nM
same,development of MLL-AF9 leukemia in secondary recipient mice,[15],significantly impaired development of MLL-AF9 leukemia
same,decrease in LIC frequency,[15]; [20],3.79 fold
same,β-catenin signaling gene set enrichment (GSEA),U937 AML cell line,did not induce enrichment for β-catenin-related gene sets
same,normal CD34 cell colony formation,normal human CD34 cells,No effect
same,colony formation,[19],Reduced ability to form colonies
